Results from patent US20140259191A1, “FISH ANESTHETIC AND METHOD” (AQUA-MOR TECHNOLOGIES LTD., priority 2011, published 2014).

Experiments:
catfish = test: Anesthesia of catfish by linalool added to tank water; assay type: in vivo, Clarias gariepinus; conditions: 100 ppm linalool
Protocol: To a four liter tank containing […] 10-month old catfish (Clarias gariepinus) of respective weights 31 g, 14 g, 24 g and 9 g and respective body lengths 17 cm, 13 cm, 16 cm and 10 cm in water at 31° C. and pH 7 was added a formulation containing 1% linalool. The formulation was added to the water to a linalool concentration of 100 ppm in the water. The fish became relaxed 2 5 minutes after addition of linalool and after 4 minutes were completely anesthetized. At 5.5 minutes the fish were removed to a recovery tank with fresh water. After 7 minutes in the recovery tank the fish resumed normal behavior.

fish = test: Exposure of fish to linalool at different concentrations and times (survival, anesthesia); assay type: in vivo
Excerpt: As will be appreciated by persons skilled in the art, for a given type of aquatic organism of a given size, there is an inverse (though not necessarily linear) relationship between the concentration of linalool in the water and the amount of time the organism needs to be exposed to the linalool in order to achieve sedation or anesthetization, and similarly there is an inverse (though not necessarily linear) relationship between the linalool concentration and the amount of time an organism may be exposed to the linalool in order before death occurs. […] On the other hand, the same fish were unaffected by exposure to 25 ppm linalool, even for long periods of time.

carp = test: Carp exposed to 75 ppm linalool for varying amounts of time, recovery observed; assay type: in vivo, Cyprinus carpio; parameters: key to recovery state at 13 minutes after introduction of linalool / recovery state at 15 minutes after introduction of linalool / recovery state at 16 minutes after introduction of linalool / recovery state at 17 minutes after introduction of linalool / recovery state at 19 minutes after introduction of linalool / recovery state at 20 minutes after introduction of linalool / recovery state at 21 minutes after introduction of linalool / recovery state at 22 minutes after introduction of linalool / recovery state at 24 minutes after introduction of linalool / recovery state at 25 minutes after introduction of linalool / recovery state at 27 minutes after introduction of linalool / recovery state at 28 minutes after introduction of linalool / recovery state at 29 minutes after introduction of linalool / recovery state at 38 minutes after introduction of linalool / recovery state at 39 minutes after introduction of linalool / recovery state at 40 minutes after introduction of linalool / recovery state at 70 minutes after introduction of linalool / recovery state at 77 minutes after introduction of linalool / recovery state at 78 minutes after introduction of linalool: RT = removed to recovery tank; PR = partial recovery; TR = total recovery
Protocol: 16 healthy carp (Cyprinus carpio), average weight of 150 g, maintained in 6 liter tanks, were each exposed to 75 ppm of linalool (using the same formulation described in Example 1, 45 g of which were mixed into each treatment tank) for varying amounts of time. Pairs of fish were introduced to linalool simultaneously and then removed to recovery tanks at various times: 3, 8, 12, 15, 20, 30, 40 and 50 minutes after introduction, and each fish's recovery was observed over the course of two consecutive days. Complete anesthesia was achieved after 5 minutes of exposure.

carp fish = test: Anesthesia of carp by linalool added to tank water; assay type: in vivo, Cyprinus carpio; conditions: for time after addition of linalool until fish became relaxed / time until fish completely anesthetized: pH 7
Protocol: To a 100 liter tank containing 462 10-month old carp fish (Cyprinus carpio) of average weight 70 g and average body length 10 cm, having water at 25° C. at pH 7 was added a formulation containing 1% linalool. The formulation was added to the water to a linalool concentration of 75 ppm in the water. The fish became relaxed 3 minutes after addition of linalool and after 5 minutes were completely anesthetized. After 15 minutes the fish were removed to a recovery tank with fresh water. After 20 minutes in the recovery tank the fish resumed normal behavior.
(§1) To a 20 liter tank containing eight 2.5-year old carp fish of average weight 1 kg and average body length 50 cm in water at 20° C. and pH 7 was added a formulation containing 1% linalool. The formulation was added to the water to a linalool concentration of 100 ppm in the water. The fish became relaxed 2 minutes after addition of linalool and after 3 minutes were completely anesthetized. At 3 minutes the fish were removed to a recovery tank with fresh water. After 7 minutes in the recovery tank the fish resumed normal behavior.
To a 20 liter tank containing eight 1.8-year old carp fish of average weight 250 g and body length 21-24 cm in water at 20° C. and pH 7 was added a formulation containing 1% linalool. The formulation was added to the water to a linalool concentration of 50 ppm in the water. The fish became relaxed 3 minutes after addition of linalool and after 7 minutes were completely anesthetized. At 17 minutes the fish were removed to a recovery tank with fresh water. After 29 minutes in the recovery tank the fish resumed normal behavior.
as §1, with “2.2-year” for “2.5-year”, “380 g” for “1 kg”, “and” for “and average”, “30-32” for “50”, “At 17” for “After 7”

[1] = carp 150 g, fish still exposed (nos. 3-16)
[2] = carp, removed to recovery tank at 8 minutes (fish nos. 3, 4)
[3] = carp, removed to recovery tank at 12 minutes (fish nos. 5, 6)
[4] = carp, removed to recovery tank at 15 minutes (fish nos. 7, 8)
[5] = carp, removed to recovery tank at 20 minutes (fish nos. 9, 10)
[6] = carp, removed to recovery tank at 30 minutes (fish nos. 11, 12)
[7] = carp, removed to recovery tank at 40 minutes (fish nos. 13, 14)
[8] = Example 13: 462 carp, average 70 g, 75 ppm linalool, 25° C.
[9] = Example 14: eight carp, average 1 kg, 100 ppm linalool, 20° C.
[10] = Example 15: eight carp, average 250 g, 50 ppm linalool, 20° C.
[11] = Example 16: eight carp, average 380 g, 100 ppm linalool, 20° C.

C=CC(C)(O)CCC=C(C)C (stereo not drawn) [linalool]
time until fish completely anesthetized (catfish; Example 19: catfish 9-31 g, 31° C., pH 7): 4 min | time in recovery tank until normal behavior resumed (catfish; Example 19: catfish, removed at 5.5 minutes): 7 min | effect of exposure (fish; fish exposed to 25 ppm linalool, even for long periods of time): unaffected | survival (fish; fish left for 40 minutes in 100 ppm linalool): did not survive | survival (fish; fish left for 50 minutes in 75 ppm linalool): did not survive | anesthesia (fish; fish left for five minutes in 100 ppm linalool): effectively anesthetized | time of exposure until complete anesthesia (carp; Example 8: carp 150 g): 5 min | observed state at 5 minutes after introduction of linalool (carp; carp 150 g): Loss of reflex reactivity (stage 5 anesthesia) | observed state at 10 minutes after introduction of linalool (carp; carp 150 g): opercular movements slow and irregular | observed state at 1 minute after introduction of linalool (carp; carp 150 g, all fish): Total loss of equilibrium | observed state at 3 minutes after introduction of linalool (carp; [1]): Total loss of reactivity to all but strong external stimuli | observed state at 4 minutes after introduction of linalool (carp; [1]): slow but regular opercular rate | recovery state at 13 minutes after introduction of linalool (carp; carp, removed to recovery tank at 3 minutes (fish nos. 1, 2)): TR | recovery state at 15 minutes after introduction of linalool (carp; [2]): PR | recovery state at 16 minutes after introduction of linalool (carp; [2]): TR and PR | recovery state at 17 minutes after introduction of linalool (carp; [2]): TR | recovery state at 19 minutes after introduction of linalool (carp; [3]): PR | recovery state at 20 minutes after introduction of linalool (carp; [3]): PR | recovery state at 21 minutes after introduction of linalool (carp; [3]): TR | recovery state at 22 minutes after introduction of linalool (carp; [3]): TR | recovery state at 24 minutes after introduction of linalool (carp; [4]): PR | recovery state at 25 minutes after introduction of linalool (carp; [4]): TR | recovery state at 28 minutes after introduction of linalool (carp; [4]): PR | recovery state at 29 minutes after introduction of linalool (carp; [4]): TR | recovery state at 27 minutes after introduction of linalool (carp; [5]): PR | recovery state at 28 minutes after introduction of linalool (carp; [5]): TR | recovery state at 38 minutes after introduction of linalool (carp; [6]): PR | recovery state at 39 minutes after introduction of linalool (carp; [6]): TR and PR | recovery state at 40 minutes after introduction of linalool (carp; [6]): TR | recovery state at 70 minutes after introduction of linalool (carp; [7]): TR | recovery state at 77 minutes after introduction of linalool (carp; [7]): PR | recovery state at 78 minutes after introduction of linalool (carp; [7]): TR | recovery of fish nos. 15 and 16 (carp; carp, removed to recovery tank at 50 minutes): Fish nos. 15 and 16 never recovered. | time after addition of linalool until fish became relaxed (carp fish; [8]): 3 min | time until fish completely anesthetized (carp fish; [8]): 5 min | time in recovery tank until normal behavior resumed (carp fish; Example 13: carp 70 g, 75 ppm linalool, removed after 15 minutes): 20 min | time in recovery tank until normal behavior resumed (carp fish; Example 14: carp 1 kg, 100 ppm linalool, removed at 3 minutes): 7 min | time after addition of linalool until fish became relaxed (carp fish; [9]): 2 min | time until fish completely anesthetized (carp fish; [9]): 3 min | time in recovery tank until normal behavior resumed (carp fish; Example 15: carp 250 g, 50 ppm linalool, removed at 17 minutes): 29 min | time after addition of linalool until fish became relaxed (carp fish; [10]): 3 min | time until fish completely anesthetized (carp fish; [10]): 7 min | time in recovery tank until normal behavior resumed (carp fish; Example 16: carp 380 g, 100 ppm linalool, removed at 3 minutes): 17 min | time after addition of linalool until fish became relaxed (carp fish; [11]): 2 min | time until fish completely anesthetized (carp fish; [11]): 3 min
